Laboratory results as given in patent US7381521B2, “Anti-pathogenic composition useful in blood preservation” (Altachem Pharma Ltd., priority 2001, dated 2008).

Tests used:
[1] = tested on: Candida albicans ATCC 1031; experiment: Test 2 (DGHM), growth inhibition by dilutions, 72 hours at 37° C.; format: cell-based
Method: (§1) Another test was carried out a basis of the following solutions • 100 ml of a 0.1% solution of chlorohexidine digluconate (pH 6); and • 100 ml of a 0.1% solution of Bardac22®.
(§2) The activity of these solutions, alone or in combination, was more particularly tested in respect of Staphylococcus aureus ATCC 6538, Escherichia coli ATCC 11229 and Candida albicans ATCC 10231.
(§3) The tests were conducted in accordance with the procedure described in Chapter I/2.1 and 2.2 of Tichtlinien für die Prüfung und Bewertung chemischer Desinfektionsverfahren der DGHM/Guidelines for Testing and Evaluating Chemical Disinfection Processes of DGHM as at 1.1, 1981.
Tables IX, X and XI respectively illustrate the bactericidal and fungicidal activity of a 0.1% aqueous solution of chlorohexidine digluconate, a 0.1% aqueous solution of Bardac22® and a mixture of equal parts of both compounds. The procedures of which these Tables illustrate the results comprise incubation of 72 hours at 37° C. and the use of the following inactivating substances as controls: • A: 3% Tween®80+0.3% lecithin+0.1% cysteine • B: 3% Tween®80+3% saponin+0.1% cysteine+0.1% histidine; • C: 3% Tween®80+0.3% lecithin+0.1% histidine+0.5% sodium thiosulphate.
In these Tables, the sign “+” indicates an increase and the sign “−” denotes the absence of growth.

E. coli ATCC 11229 = experiment: Test 2 (DGHM), action as a function of disinfection time at 22° C., 2 × 10^9 organisms/ml; format: cell-based, Escherichia coli
Method: as §1, §2, §3

[2] = 0.00625% vol/vol, inactivator A
[3] = 0.00625% vol/vol, inactivator B
[4] = 0.00625% vol/vol, inactivator C
[5] = 0.00625% vol/vol, no inactivator
[6] = 0.0125% vol/vol, no inactivator

## CCCCCCCCCC[N+](C)(C)CCCCCCCCCC.[Cl-] [Bardac ®, didecyl dimethyl ammonium chloride]
[1]
  concentration of active substance inhibiting growth: 0.0001%
  dilution of the 0.1% solution inhibiting growth: 0.1%
[1]; [2]
  growth: +
[1]; [3]
  growth: +
[1]; [4]
  growth: +
[1]; [5]
  growth: +
[1]; 0.0125% vol/vol, inactivator A
  growth: +
[1]; 0.0125% vol/vol, inactivator B
  growth: +
[1]; 0.0125% vol/vol, inactivator C
  growth: +
[1]; [6]
  growth: +
[1]; 0.025% vol/vol, inactivator A
  growth: +
[1]; 0.025% vol/vol, inactivator B
  growth: +
[1]; 0.025% vol/vol, inactivator C
  growth: +
[1]; 0.025% vol/vol, no inactivator
  growth: +
[1]; 0.05% vol/vol, inactivator A
  growth: +
[1]; 0.05% vol/vol, inactivator B
  growth: +
[1]; 0.05% vol/vol, inactivator C
  growth: +
[1]; 0.05% vol/vol, no inactivator
  growth: +
[1]; 0.1% vol/vol, inactivator A
  growth: +
[1]; 0.1% vol/vol, inactivator B
  growth: +
[1]; 0.1% vol/vol, inactivator C
  growth: +
[1]; 0.1% vol/vol, no inactivator
  growth: −
[1]; 0.5% vol/vol, inactivator A
  growth: +
[1]; 0.5% vol/vol, inactivator B
  growth: +
[1]; 0.5% vol/vol, inactivator C
  growth: +
[1]; 0.5% vol/vol, no inactivator
  growth: −
[1]; 1.0% vol/vol, inactivator A
  growth: +
[1]; 1.0% vol/vol, inactivator B
  growth: +
[1]; 1.0% vol/vol, inactivator C
  growth: +
[1]; 1.0% vol/vol, no inactivator
  growth: −
E. coli ATCC 11229; 0.05% vol/vol, 1 min
  growth: +
E. coli ATCC 11229; 0.05% vol/vol, 3 min
  growth: +
E. coli ATCC 11229; 0.05% vol/vol, 5 min
  growth: +
E. coli ATCC 11229; 0.05% vol/vol, 15 min
  growth: +
E. coli ATCC 11229; 0.05% vol/vol, 30 min
  growth: +
E. coli ATCC 11229; 0.05% vol/vol, 60 min
  growth: +
E. coli ATCC 11229; 0.1% vol/vol, 1 min
  growth: +
E. coli ATCC 11229; 0.1% vol/vol, 3 min
  growth: +
E. coli ATCC 11229; 0.1% vol/vol, 5 min
  growth: +
E. coli ATCC 11229; 0.1% vol/vol, 15 min
  growth: +
E. coli ATCC 11229; 0.1% vol/vol, 30 min
  growth: +
E. coli ATCC 11229; 0.1% vol/vol, 60 min
  growth: +
E. coli ATCC 11229; 0.5% vol/vol, 1 min
  growth: +
E. coli ATCC 11229; 0.5% vol/vol, 3 min
  growth: +
E. coli ATCC 11229; 0.5% vol/vol, 5 min
  growth: +
E. coli ATCC 11229; 0.5% vol/vol, 15 min
  growth: +
E. coli ATCC 11229; 0.5% vol/vol, 30 min
  growth: +
E. coli ATCC 11229; 0.5% vol/vol, 60 min
  growth: +
E. coli ATCC 11229; 1% vol/vol, 1 min
  growth: +
E. coli ATCC 11229; 1% vol/vol, 3 min
  growth: +
E. coli ATCC 11229; 1% vol/vol, 5 min
  growth: +
E. coli ATCC 11229; 1% vol/vol, 15 min
  growth: +
E. coli ATCC 11229; 1% vol/vol, 30 min
  growth: +
E. coli ATCC 11229; 1% vol/vol, 60 min
  growth: +
E. coli ATCC 11229; 5% vol/vol, 1 min
  growth: +
E. coli ATCC 11229; 5% vol/vol, 3 min
  growth: +
E. coli ATCC 11229; 5% vol/vol, 5 min
  growth: +
E. coli ATCC 11229; 5% vol/vol, 15 min
  growth: −
E. coli ATCC 11229; 5% vol/vol, 30 min
  growth: −
E. coli ATCC 11229; 5% vol/vol, 60 min
  growth: −
E. coli ATCC 11229; 10% vol/vol, 1 min
  growth: +
E. coli ATCC 11229; 10% vol/vol, 3 min
  growth: +
E. coli ATCC 11229; 10% vol/vol, 5 min
  growth: −
E. coli ATCC 11229; 10% vol/vol, 15 min
  growth: −
E. coli ATCC 11229; 10% vol/vol, 30 min
  growth: −
E. coli ATCC 11229; 10% vol/vol, 60 min
  growth: −
E. coli ATCC 11229; 25% vol/vol, 1 min
  growth: −
E. coli ATCC 11229; 25% vol/vol, 3 min
  growth: −
E. coli ATCC 11229; 25% vol/vol, 5 min
  growth: −
E. coli ATCC 11229; 25% vol/vol, 15 min
  growth: −
E. coli ATCC 11229; 25% vol/vol, 30 min
  growth: −
E. coli ATCC 11229; 25% vol/vol, 60 min
  growth: −

## [H]/N=C(\N/C(=N/[H])NCCCCCCNC(=N)NC(=N)Nc1ccc(Cl)cc1)Nc1ccc(Cl)cc1 [Chlorhexidine, chlorohexidine digluconate, reference compound]
[1]
  concentration of active substance inhibiting growth: 0.001%
  dilution of the 0.1% solution inhibiting growth: 1%
[1]; [2]
  growth: +
[1]; [3]
  growth: +
[1]; [4]
  growth: +
[1]; [5]
  growth: +
[1]; 0.0125% vol/vol, inactivator A
  growth: +
[1]; 0.0125% vol/vol, inactivator B
  growth: +
[1]; 0.0125% vol/vol, inactivator C
  growth: +
[1]; [6]
  growth: +
[1]; 0.025% vol/vol, inactivator A
  growth: +
[1]; 0.025% vol/vol, inactivator B
  growth: +
[1]; 0.025% vol/vol, inactivator C
  growth: +
[1]; 0.025% vol/vol, no inactivator
  growth: +
[1]; 0.05% vol/vol, inactivator A
  growth: +
[1]; 0.05% vol/vol, inactivator B
  growth: +
[1]; 0.05% vol/vol, inactivator C
  growth: +
[1]; 0.05% vol/vol, no inactivator
  growth: +
[1]; 0.1% vol/vol, inactivator A
  growth: +
[1]; 0.1% vol/vol, inactivator B
  growth: +
[1]; 0.1% vol/vol, inactivator C
  growth: +
[1]; 0.1% vol/vol, no inactivator
  growth: +
[1]; 0.5% vol/vol, inactivator A
  growth: +
[1]; 0.5% vol/vol, inactivator B
  growth: +
[1]; 0.5% vol/vol, inactivator C
  growth: +
[1]; 0.5% vol/vol, no inactivator
  growth: +
[1]; 1.0% vol/vol, inactivator A
  growth: +
[1]; 1.0% vol/vol, inactivator B
  growth: +
[1]; 1.0% vol/vol, inactivator C
  growth: +
[1]; 1.0% vol/vol, no inactivator
  growth: −
E. coli ATCC 11229; 0.05% vol/vol, 1 min
  growth: +
E. coli ATCC 11229; 0.05% vol/vol, 3 min
  growth: +
E. coli ATCC 11229; 0.05% vol/vol, 5 min
  growth: +
E. coli ATCC 11229; 0.05% vol/vol, 15 min
  growth: +
E. coli ATCC 11229; 0.05% vol/vol, 30 min
  growth: +
E. coli ATCC 11229; 0.05% vol/vol, 60 min
  growth: +
E. coli ATCC 11229; 0.1% vol/vol, 1 min
  growth: +
E. coli ATCC 11229; 0.1% vol/vol, 3 min
  growth: +
E. coli ATCC 11229; 0.1% vol/vol, 5 min
  growth: +
E. coli ATCC 11229; 0.1% vol/vol, 15 min
  growth: +
E. coli ATCC 11229; 0.1% vol/vol, 30 min
  growth: +
E. coli ATCC 11229; 0.1% vol/vol, 60 min
  growth: +
E. coli ATCC 11229; 0.5% vol/vol, 1 min
  growth: +
E. coli ATCC 11229; 0.5% vol/vol, 3 min
  growth: +
E. coli ATCC 11229; 0.5% vol/vol, 5 min
  growth: +
E. coli ATCC 11229; 0.5% vol/vol, 15 min
  growth: +
E. coli ATCC 11229; 0.5% vol/vol, 30 min
  growth: +
E. coli ATCC 11229; 0.5% vol/vol, 60 min
  growth: +
E. coli ATCC 11229; 1% vol/vol, 1 min
  growth: +
E. coli ATCC 11229; 1% vol/vol, 3 min
  growth: +
E. coli ATCC 11229; 1% vol/vol, 5 min
  growth: +
E. coli ATCC 11229; 1% vol/vol, 15 min
  growth: +
E. coli ATCC 11229; 1% vol/vol, 30 min
  growth: +
E. coli ATCC 11229; 1% vol/vol, 60 min
  growth: +
E. coli ATCC 11229; 5% vol/vol, 1 min
  growth: +
E. coli ATCC 11229; 5% vol/vol, 3 min
  growth: +
E. coli ATCC 11229; 5% vol/vol, 5 min
  growth: +
E. coli ATCC 11229; 5% vol/vol, 15 min
  growth: +
E. coli ATCC 11229; 5% vol/vol, 30 min
  growth: −
E. coli ATCC 11229; 5% vol/vol, 60 min
  growth: −
E. coli ATCC 11229; 10% vol/vol, 1 min
  growth: +
E. coli ATCC 11229; 10% vol/vol, 3 min
  growth: +
E. coli ATCC 11229; 10% vol/vol, 5 min
  growth: +
E. coli ATCC 11229; 10% vol/vol, 15 min
  growth: −
E. coli ATCC 11229; 10% vol/vol, 30 min
  growth: −
E. coli ATCC 11229; 10% vol/vol, 60 min
  growth: −
E. coli ATCC 11229; 25% vol/vol, 1 min
  growth: +
E. coli ATCC 11229; 25% vol/vol, 3 min
  growth: +
E. coli ATCC 11229; 25% vol/vol, 5 min
  growth: +
E. coli ATCC 11229; 25% vol/vol, 15 min
  growth: −
E. coli ATCC 11229; 25% vol/vol, 30 min
  growth: −
E. coli ATCC 11229; 25% vol/vol, 60 min
  growth: −
